Measured values taken from US8173606B2, “Sulfated oligosaccharide derivatives” (Progen Pharmaceuticals Limited, priority 2004, dated 2012).

What was measured:
[1] = biological target: FGF-2 (Homo sapiens, UniProt P09038); test: SPR based solution affinity assay, growth factor binding (FGF-2); conditions: heparin-coated sensorchip, HBS-EP buffer containing 0.3 M NaCl, 25° C.; read-out: Kd bFGF
Protocol: Binding affinities of ligands for the growth factors FGF-1, FGF-2 and VEGF were measured using a surface plasmon resonance (SPR) based solution affinity assay. The principle of the assay is that heparin immobilised on a sensorchip surface distinguishes between free and bound growth factor in an equilibrated solution of the growth factor and a ligand. Upon injection of the solution, the free growth factor binds to the immobilised heparin, is detected as an increase in the SPR response and its concentration thus determined. A decrease in the free growth factor concentration as a function of the ligand concentration allows for the calculation of the dissociation constant, Kd. It is important to note that ligand binding to the growth factors can only be detected when the interaction involves the HS binding site, thus eliminating the chance of evaluating non-specific binding to other sites on the protein. A 1:1 stoichiometry has been assumed for all protein:ligand interactions.
For the testing of growth factor binding activity, heparin-coated sensorchips were used. Their preparation, via immobilisation of biotinylated BSA-heparin on a streptavidin-coated sensorchip, has been described.[5] Heparin has also been immobilised via aldehyde coupling using either adipic acid dihydrazide or 1,4-diaminobutane. […] Ligands binding to FGF-1 and VEGF were measured in HBS-EP buffer (10 mM HEPES, pH 7.4, 150 mM NaCl, 3.0 mM EDTA and 0.005% (v/v) polysorbate 20), while binding to FGF-2 was measured in HBS-EP buffer containing 0.3 M NaCl.[5] […] For each assay mixture, 50-200 μL of solution was injected at 5-40 μL/min and the relative binding response measured. […]
Sensorgram data were analysed using the BIAevaluation software (BIAcore). […]
[formula] and the binding equation[5] can be expressed as
The Kd values given are the values fit, using the binding equation, to a plot of [P] versus [L]total. Where Kd values were measured in duplicate, the values represent the average of the duplicate measurements. […]

[2] = Pharmacokinetic studies of 35S-labelled compounds after iv administration; conditions: rat; for AUC0-12 h / C0 / Cl* (apparent) / Vd* (apparent) / t1/2* (apparent): in vivo, iv, 2.5 mg/kg; for k* (apparent): iv bolus 2.5 mg/kg
Protocol: The polyol precursors for PG500, 501, 503, 504, 506 and PI-88 (2 mg of each) were desiccated under vacuum over P2O5 for 3 days. Into each vial was syringed 50 μL of a stock solution of 1.77 mg (2.0 mCi) of ^35SO3.pyridine complex and 2 mg SO3.Me3N in 300 μL of anhydrous DMF (Aldrich, redried over freshly ignited 3 A molecular sieves). A further 600 μL of anhydrous DMF was added to the SO3 vial and was distributed to each sample vial. The samples were heated to 60° for 66 hr. SO3.Me3N (14 mg in 300 μL anhydrous DMF) was added to each vessel and the resulting solutions were heated to 60° overnight. The vials were cooled to room temperature and stored at −80° C. awaiting purification.
Each sample was quenched by addition of Na2CO3 (sat. aqu. adjusted to pH 8-9), evaporated to dryness and subjected to SEC (Biogel P2, 2.6×90 cm, flow rate 30 mL/hr, 5 min/fraction). Fractions containing desired material were detected using a G-M counter and DMB test followed by CE.
Male Sprague Dawley rats (250-350 g) were used. The animals were allowed free access to food and water before and during the experiments, during which they were maintained unrestrained in metabolism cages. Rats were anaesthetized with isoflurane (Forthane®). A catheter was inserted in the external jugular vein via an incision in the neck, and was passed under the skin to a second incision in the skin of the back (midline vicinity of the scapulae). This was then exteriorized with the protection of a light metal spring. The incision was closed and the spring fixed to the skin with Michel sutures so that the rats had full range of movement. The animals were carefully monitored during recovery (1-4 h).
All doses were administered as a bolus intravenous injection of 2.5 mg/kg in a dose volume of 2 mL/kg. The total amount of radioactivity administered to each rat was 0.5-10 μCi. The dose level used in this study is 10-fold lower than the no-effect dose previously established for acute toxicity of PI-88. Blood samples (˜250 μL) were collected predose and at 5, 15, 30, 45 min, and 1, 1.5, 2, 4, 8, 12, 24, 36 and 48 h after dosing. The blood samples were immediately centrifuged and the plasma collected. At completion of the experiments, the animals were killed by a lethal overdose of IV pentobarbitone anaesthetic (Nembutal®). Urine was collected from each animal at intervals of 0-12 h, 12-24 h and 24-48 h after dosing. Cage washings (˜15 mL of deionised water) were also collected. At the end of the experiment, bladder contents were aspirated from each animal and added to the 24-48 h voidings. Feces were collected over the same time intervals as the urine.
Aliquots of plasma (100 μL), urine and cage washings (500 μL) were transferred directly to 6 mL polypropylene scintillation vials for determination of radioactivity. Feces collected during each time period (from one animal dosed with each compound) were weighed and homogenised in 4 volumes of deionised water using a mechanical homogeniser. Approximately 1 g (accurately weighed) of this slurry was transferred to a 20 mL glass scintillation vial, 2 mL of tissue solubiliser added and the vials capped and incubated at 60° C. for at least 24 h. Radioactivity was measured following mixing of samples with Packard Ultima Gold liquid scintillation counting cocktail (2.0 mL for plasma and dose, 5.0 mL for urine and cage washings, 10 mL for feces). Counting was conducted on a Packard Tr-Carb liquid scintillation counter. Any result less than three times the background was considered less than the lower limit of quantitation not used in calculations. Plasma, urine and cage washings were counted in triplicate within 5 days of collection and were not corrected for radiochemical decay. Feces were processed as a batch at the completion of the study and the counts from these samples were corrected for radiochemical decay.

Chain of FGF-2 (P09038 143-288, species assumed): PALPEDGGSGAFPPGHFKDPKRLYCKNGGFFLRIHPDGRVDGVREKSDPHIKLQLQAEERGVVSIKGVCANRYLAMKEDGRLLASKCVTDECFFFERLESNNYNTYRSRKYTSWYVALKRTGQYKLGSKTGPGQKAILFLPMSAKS

Substance | Kd [1] [µM] | AUC0-12 h [2] [μg-eq/h · mL] | C0 [2] [μg-eq/mL] | Cl* (apparent) [2] [mL/min/kg] | Vd* (apparent) [2] [mL] | t1/2* (apparent) [2] [min] | k* (apparent) [2] [h⁻¹]
Benzyl Glycoside Polysulfate [PG500] | 0.086 ± 0.007 | 12.6 ± 1.2 | 20.5 ± 1.3 | 3.32 ± 0.22 | 38.4 ± 3.8 | 49.8 ± 1.2 | 0.836 ± 0.024
Octyl Glycoside Polysulfate [PG501] | 0.0683 ± 0.0029 | 29.7 ± 3.4 | 35.6 ± 3.1 | 1.39 ± 0.152 | 22.9 ± 2.2 | 66 ± 5.4 | 0.633 ± 0.053
